From US20090203716A1, “Pyrimidine low molecular weight ligands for modulating hormone receptors” (The Government of the United States of America as …, priority 2006, published 2009)

How the values were obtained:
human TSH receptor = target: T1, human TSH receptor (Homo sapiens, UniProt P16473); experiment: intracellular cAMP accumulation, agonism at TSHR stably expressed in HEK EM 293 cells; type: cell-based; settings: cAMP
T1 construct: expressed in transfected cells
Method: With reference to Table 1, exemplary disclosed compounds were evaluated against human TSH receptor and human LHCG receptor that were stably expressed in HEK 293 EM cells as previously described by Libert et al. (Biochem. Biophys. Res. Commun. 1989, 165, 1250-1255); and by Schulz et al. (Mol. Endocrinol. 1999, 13, 181-190). Cell surface expression of TSH receptor and LHCG receptor were determined via FACS analysis (Kleinau, G.; Jäschke, H.; Neumann, S.; Lättig, S.; Paschke, R.; Krause, G. J. Biol. Chem. 2004, 279, 51590-51600). Agonism of compounds 3-20 were determined via measurement of intracellular cyclic AMP accumulation. […] For example, […] certain compounds disclosed herein exerted no discernible effect on the FSH receptor.
Cells were cultured for 48 h in 24-well plates before incubation for 1 h in serum-free DMEM containing 1 mM 3-isobutyl-1-methylxanthine (IBMX) (SIGMA) and bovine TSH (1.8 μM) (SIGMA) or human LH (1000 ng/ml) (Dr. A. Parlow, NIDDK National Hormone and Pituitary Program) or compounds 3-19 (0-100 μM) in a humidified 5% CO2 incubator. Following aspiration of the medium after incubation with compounds, cells were lysed using lysis buffer 1 of the cAMP Biotrak Enzymeimmunoassay (EIA) System (Amersham Biosciences). The cAMP content of the cell lysate was determined using the manufacturer's protocol. The efficacy of receptor activation by small molecule modulators is expressed as % of maximum response of LHCG receptor or TSH receptor to LH or TSH, respectively. The potency (EC50) was obtained from dose response curves (0-100 μM compound) by data analysis with GraphPad Prism 4 for Windows. With reference to FIG. 1, intracellular cAMP production was determined in response to 100 μM of each compound and is expressed as % of maximum response of TSHR/LHCGR to TSH (100 mU/ml)/LH (1000 ng/ml). The data are presented as mean±SEM of two independent experiments, each performed in duplicate.
(§1) Transiently transfected cells were cultured for 48 hours before the cAMP assay. HEK-EM 293 cells stably expressing TSHR, LHCGR or FSHR were seeded into 24-well plates with a density of 2.2×10^5 cells/well 24 hours before the cAMP assay. After removal of growth medium, cells were incubated for 1 hour in HBSS (Cellgro) with 10 mM HEPES (Cellgro) containing 1 mM 3-isobutyl-1-methylxanthine (IBMX) (Sigma) and the ligand of interest in a humidified 5% CO2 incubator at 37° C. The intracellular cAMP content was determined with the cAMP Biotrak Enzymeimmunoassay (EIA) System (GE Healthcare). Data were analyzed using GraphPad Prism 4 for Windows. Receptor expression was measured as described in Jaschke et al., J Biol Chem 281:9841-9844.

FSHR = target: T2, FSHR (Homo sapiens, UniProt P23945); experiment: intracellular cAMP accumulation in HEK-EM 293 cells stably expressing FSHR; type: cell-based
T2 sequence (P23945 18-695): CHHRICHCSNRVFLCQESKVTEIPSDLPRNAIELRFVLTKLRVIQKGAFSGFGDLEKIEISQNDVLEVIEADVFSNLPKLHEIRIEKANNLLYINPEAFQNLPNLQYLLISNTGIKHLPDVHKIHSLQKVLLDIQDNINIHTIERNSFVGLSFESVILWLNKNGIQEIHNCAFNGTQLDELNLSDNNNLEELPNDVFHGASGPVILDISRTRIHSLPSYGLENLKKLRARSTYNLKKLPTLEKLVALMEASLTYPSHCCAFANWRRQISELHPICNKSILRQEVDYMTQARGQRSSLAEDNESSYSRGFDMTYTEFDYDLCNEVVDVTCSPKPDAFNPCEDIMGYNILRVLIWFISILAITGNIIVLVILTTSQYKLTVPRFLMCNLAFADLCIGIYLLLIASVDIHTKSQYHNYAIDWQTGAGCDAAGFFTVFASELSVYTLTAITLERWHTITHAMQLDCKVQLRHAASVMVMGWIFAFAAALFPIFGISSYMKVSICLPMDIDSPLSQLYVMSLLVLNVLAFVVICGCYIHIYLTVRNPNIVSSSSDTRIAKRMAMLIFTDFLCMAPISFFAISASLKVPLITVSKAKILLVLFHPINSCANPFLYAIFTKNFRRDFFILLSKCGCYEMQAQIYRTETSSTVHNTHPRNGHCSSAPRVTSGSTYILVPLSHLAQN
Method: The expression vectors for human TSHR and LHR are described in Jaschke et al., J Biol Chem 281:9841-9844. The FSHR cDNA in pcDNA3.1 was obtained from the Missouri S&T cDNA Resource Center (www.cDNA.org) and was subcloned into the pcDNA3.1(−)/hygromycin vector. HEK-EM 293 cells were transfected with the cDNA of TSHR, LHCGR or FSHR using FuGENE 6 Transfection reagent (Roche Diagnostics). Hygromycin (250 μg/ml) was used as selection marker.
as §1

TSHR mutant M9 = experiment: cAMP production in HEK-EM 293 cells transiently expressing TSHR mutant M9; type: cell-based, human; settings: 30 μM compound
Method: HEK-EM 293 cells were grown in Dulbecco's modified Eagle's Medium (DMEM) supplemented with 10% fetal bovine serum, 100 units/ml penicillin and 10 μg/ml streptomycin (Life Technologies Inc.) at 37° C. in a humidified 5% CO2 incubator. Cells were transiently transfected with wild type TSHR and mutant receptors in 24-well plates (7.5×10^4 cells per well) with 0.4 μg DNA/well using FuGENE™ 6 reagent (Roche) according to the manufacturer's protocol.
The M9 mutant is described in Jaschke et al., J Biol Chem 281:9841-9844. The Y7.42A mutant was introduced into hTSHR-pcDNA3.1 via the QuickChange XL Site-Directed Mutagenesis kit (Stratagene). The construct was verified by sequencing (MWG Biotech).
Transiently transfected cells were cultured for 48 hours before the cAMP assay. HEK-EM 293 cells stably expressing TSHR, LHCGR or FSHR were seeded into 24-well plates with a density of 2.2×10^5 cells/well 24 hours before the cAMP assay. […] The intracellular cAMP content was determined with the cAMP Biotrak Enzymeimmunoassay (EIA) System (GE Healthcare). Data were analyzed using GraphPad Prism 4 for Windows. Receptor expression was measured as described in Jaschke et al., J Biol Chem 281:9841-9844.

T1 sequence (P16473 21-764): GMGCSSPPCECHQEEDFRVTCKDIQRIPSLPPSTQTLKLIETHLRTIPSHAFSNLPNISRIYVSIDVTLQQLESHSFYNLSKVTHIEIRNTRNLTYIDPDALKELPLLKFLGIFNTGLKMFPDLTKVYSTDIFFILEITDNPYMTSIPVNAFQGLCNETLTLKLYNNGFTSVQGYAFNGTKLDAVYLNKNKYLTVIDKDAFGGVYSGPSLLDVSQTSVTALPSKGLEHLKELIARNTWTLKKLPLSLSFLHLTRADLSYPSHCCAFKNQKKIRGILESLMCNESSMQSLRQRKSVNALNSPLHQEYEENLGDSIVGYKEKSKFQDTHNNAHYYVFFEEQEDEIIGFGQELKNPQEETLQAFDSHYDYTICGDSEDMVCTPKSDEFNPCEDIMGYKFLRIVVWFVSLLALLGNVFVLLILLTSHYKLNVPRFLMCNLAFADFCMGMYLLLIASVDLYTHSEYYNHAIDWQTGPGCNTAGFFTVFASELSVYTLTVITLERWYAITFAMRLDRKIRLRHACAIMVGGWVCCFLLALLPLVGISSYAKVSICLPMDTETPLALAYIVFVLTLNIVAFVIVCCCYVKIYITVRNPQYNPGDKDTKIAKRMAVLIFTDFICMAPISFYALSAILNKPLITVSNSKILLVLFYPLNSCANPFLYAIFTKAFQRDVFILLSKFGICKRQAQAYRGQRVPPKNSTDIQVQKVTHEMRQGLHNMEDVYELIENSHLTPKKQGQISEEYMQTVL

## COC/C=C/c1ccc(-c2nc(SC)nc3sc(C(=O)NC(C)(C)C)c(N)c23)cc1 [Compound 52]
Human TSH receptor
  agonist activity at TSHR: no agonist activity
FSHR
  activity at FSHR: no activity
TSHR mutant M9
  cAMP production, fold over TSHR basal activity, M9: 13.2±1.7 fold
